By half-life is commonly meant the time in which the quantity being followed falls by half. A low value points to rapid decline. For orientation: IC50 means the midpoint of a concentration-inhibition curve.

Where two headings read alike, the source gives them in different places.

The nature of one series: physchem. Format: physicochemical. To be noted: for half-life / half-life at 1.5 μM: buffer. The method, then: The stability of compounds of the invention was obtained by the following method. […] The solutions were incubated at 37° C.
Stability data was fit to equation 1, which illustrates our treatment of the data for 2a ([…]) as shown in FIG. 2 with first order decay constants (kFOD) given in Table 1.

A further series has as its system HeLa cells. Kind of series: Anti-proliferative assay, HeLa cells. Format: cell-based.
The test system of a further series is A549 cells. Kind of series: Anti-proliferative SRB assay, A549 cells. The class given is cell-based. The method, then: A549 cells were grown in RPMI-1640 supplemented with 10% FBS, 100 units/mL of penicillin, 100 μg/mL of streptomycin, and 2 mM L-glutamine. All cells were grown in a humidified atmosphere at 37° C. and 5% CO2. Growth inhibition was evaluated by the SRB assay^22. Cells were seeded in 96-well plates at 5000 cells per well in 100 μL of media and incubated at 37° C. for 24 hours. Cells were then treated with 0-100 μM of compounds at 37° C. for 48 hours. Cells were fixed with 50 μL cold 50% TCA, incubated at 4° C. for 1 hour, and washed 5 times with tap water. The 96-well plates were allowed to air dry and 100 μL 0.4% sulforhodamine B (SRB) in 1% acetic acid was added to each well. After 10 minutes, the unbound SRB was washed away with 1% acetic acid and the plates were dried. Protein-bound dye was solubilized by addition of 200 μL 10 mM Tris buffer and subsequent shaking at RT for 10 minutes. The absorbance of each well was measured at 490 nm by a plate reader. Percent cell survival was calculated for each concentration by the ratio of the measured absorbance to the absorbance of the untreated cells. Curve fitting was performed using Prism 4.0a software. IC50 is the 50% inhibition of cell mass without subtraction of the resistant cell population.
Background: The SRB assay estimates cell density from bound dye.

For series [1] the following is noted: cited from earlier work.
In a further series the target is PI3K. The series is described as follows: Inhibition of PI3K enzyme activity (32P ATP lipid phosphorylation, TLC). The class given is biochemical. To be noted: compounds incubated 3 hours at 37° C. in PBS pH 6.8, then 30 minute PI3K incubation; read-out: Bioassay: PI3K IC50. How it is done:
We incubated compounds for three hours at 37° C. in PBS, pH 6.8, followed a 30 minute incubation for PI3K activity using the assay system previously described which involves lipid phosphorylation by ^32P labeled ATP and thin layer chromatography, (see Yuan et al., Bioconjug. Chem. 16:669 (2005)).

Series [2] in a line: Formation of wortmannin from WmC20 conjugates monitored by HPLC. To be noted: PBS pH 6.8, 37° C. The method, then:
The solutions were incubated in water bath at 37° C. and were analyzed at different time points with HPLC by injecting the solution (10 μL) together with 1 μL internal standard solution (containing 1 μg methyl 4-hydroxybezoate). The initial time point (0 hr) was taken before putting the tube in the water bath. HPLC gradients were adjusted to produce baseline separations. Before the injection, the samples were vortexed briefly and then spun down. Data using this method appear in FIG. 6.
Compounds (1.8 mg) and 4b (1.3 mg) (examples were weighted into the 1.5 mL tubes and dissolved in PBS buffer (pH 6.8, 400 μL). The solutions were incubated at 37° C. At different time point 20 μL solution was mixed with 1 μL internal standard solution in DMSO (containing 1 μg methyl 4-hydroxybenzoate) and analyzed by HPLC. The initial time point (0 hr) was taken before putting the tube in the water bath. Before the injection, the samples were vortexed briefly and then spun down.
The following HPLC methods were employed. HPLC (Varian Prostar 210 with a variable wavelength PDA 330 detector) employed reverse phase C18 columns (VYDAC, Cat.#: 218TP 1022 for synthesis; Varian, Cat. #: R0086200C5 for analysis) with water (Millipore, containing 0.1% trifloroacetic acid,) (buffer A) and acetonitrile (containing 20% buffer A) (buffer B) as elution buffer. System 1: buffer A/buffer B (80:20) isocratic for 5 minutes, linear gradient to buffer A/buffer B (20:80) over 40 minutes, then the gradient back to 80:20 in 5 minutes and isocratic for 5 minutes, flow: 4.9 ml/min, λmax: 418 nm (used for purification of 2a); System 2: buffer A/buffer B (80:20) isocratic for 5 minutes, linear gradient to buffer A (buffer B (20:80) over 25 minutes and then isocratic for 5 minutes, then the gradient back to 80:20 in 5 minutes and isocratic for 5 minutes, flow: 6.0 mi/min, λmax: 408 nm (used for purification of 2b); System 3: buffer A/buffer B (70:30) linear gradient to buffer A/buffer B (20:80) over 15 minutes, then gradient back to 70:30 in 3 minutes and isocratic for another 5 minutes, flow: 1.0 ml/min, λmax: 258 nm (System 4: buffer A/buffer B (99:1) linear gradient to buffer A/buffer B (40:60) over 46 minutes, then gradient back to […] in 5 minutes and isocratic for another 5 minutes, flow: 1.0 ml/min, λmax: 250 nm).

The mark [3] stands for this setting: Homo sapiens, A549, 48 hours treatment.
The mark [4] stands for this setting: RPM tissue culture medium, data from Holleran et al.

In “physchem” (pH 6.8, Half Life), `COCC1OC(=O)C(=CN(C)CCCCCC(=O)O)C2=C(O)C(=O)C3=C(C(OC(C)=O)CC4(C)C(=O)CCC34)C21C` (centres unmarked) [Example 1, wortmannin C20-N(Me)-hexanoic acid] gave a half-life of 8.7 h and a half-life at 1.5 μM of 10.7 h. The compound also showed a half-inhibitory concentration (IC50) in the series with HeLa cells (Homo sapiens, HeLa) of 10.9 ± 0.2 µM. This compound also returned an IC50 in the series with A549 cells (setting [3]) of 3.11 ± 0.17 µM.
The corresponding values for `COCC1OC(=O)C(=CNCCCCCC(=O)O)C2=C(O)C(=O)C3=C(C(OC(C)=O)CC4(C)C(=O)CCC34)C21C` (centres unmarked) [Example 2, wortmannin C20-NH-hexanoic acid] are 131 h, 223 h, 63.8 ± 0.6 µM and 45.8 ± 0.3 µM.
With `COC[C@H]1OC(=O)c2coc3c2[C@@]1(C)C1=C(C3=O)[C@@H]2CCC(=O)[C@@]2(C)C[C@H]1OC(C)=O` [wortmannin], the KFOD in series [1] (MEM tissue culture medium, data from Holleran et al.) is 5.04 h⁻¹; in series [1] (setting [4]), 4.02 h⁻¹. For the same compound, in series [1] (RPM and MEM, Holleran et al.), the “half-lives in RPM and MEM tissue culture media” value was “about 10 minutes”. In addition, the “Half Life” value in series [1] (setting [4]) is 0.172 h. In addition, the “half-life in tissue culture media” value in series [1] (tissue culture media, Holleran et al.) was 8 to 13 min. Also, the “KFOD (95% confidence intervals)” value is reported as 0.012 (0.0080-0.016) hr^−1 in “physchem” (PBS pH 6.8, 37° C.); 0.18 (0.16-0.20) hr^−1 in “physchem” (PBS, 0.065 mM BSA, 37° C.); 0.30 (0.23-0.38) hr^−1 in “physchem” (PBS, 10 mM NAcLys, 37° C.); 1.87 (0.62-3.13) hr^−1 in the series “physchem” (PBS, 10 mM Proline, 37° C.). Also, the half-life in “physchem” (pH 6.8, Half Life) was 57.8 h. This compound also had a half-life at 2.26 mM in “physchem” (pH 6.8, Half Life) of 3.85 h. Further, the IC50 came out at 41 ± 0.9 µM in the series on HeLa cells (Homo sapiens, HeLa) and 21.1 ± 0.5 µM in the series on A549 cells (setting [3]).
In the case of “Wm-N(Me)Hexanoate-BSA conjugate [Example 12]”, the IC50 at PI3K worked out at 0.0148 ± 0.0011 µM. In series [2], the “K1 (wortmannin generation, fit to Equation 2)” value is recorded as 0.190 (0.128-0.253) hr^−1 and the “K2 (wortmannin degradation, fit to Equation 2)” value is reported as 0.905 (0.707-1.103) hr^−1.
WmC2O-N(Me)-hexanoate-Bead [Example 16]: in series [2], the “K1 (wortmannin generation, fit to Equation 2)” value is listed as 0.308 (0.124-0.492) hr^−1 and the “K2 (wortmannin degradation, fit to Equation 2)” value is listed as 0.148 (0.076-0.220) hr^−1.
As for “WmC20-N(H)-hexanoate-dextran [Example 18]”, the IC50 with HeLa cells came to 58 ± 0.6 µM; with A549 cells (48 hours treatment) it was 64.7 ± 1.2 µM.
For the compound WmC20-N(Me)-hexanoate-IgG [Example 14], the IC50 on PI3K came out at 0.13 µM. In addition, in series [2], the “K1 (wortmannin generation, fit to Equation 2)” value was 0.024 (0.013-0.034) hr^−1 and the “K2 (wortmannin degradation, fit to Equation 2)” value is reported as 0.282 (0.166-0.398) hr^−1.
As to “WmC20-N(Me)-hexanoate-dextran [Example 17]”, the concentration for half-maximal inhibition (IC50) in the series with HeLa cells is 13.3 ± 0.4 µM; in the series with A549 cells (48 hours treatment) it was 3.96 ± 0.23 µM.
For the compound “WmC20-NH-hexanoate-BSA conjugate [Example 13]”, the half-inhibitory concentration (IC50) on PI3K was above 1 µM.
For the compound WmC20-NH-hexanoate-IgG [Example 15], at PI3K, the IC50 was above 1 µM.

Source of the values: patent publication US20090324489A1 (priority 2005, published 2009).
